According to PubChem BioAssay (NCI):
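The compound was tested at five concentrations on cells cultured in 96-well plates, with a 48-hour exposure period. TGI marks complete inhibition of growth.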

These molecules were tested on NCI-H23 lung (assay: NCI tumour cell line growth inhibition, 48 h).
Clc1ccc(CSCCc2ccncc2)cc1Cl gave a TGI of 51.1 µM.
Molecule COc1ccc(S(=O)(=O)N2C(=O)CCC2C(=O)NN)cc1 (centres undefined) has a TGI greater than 100 µM.
CCCCn1cnc2c(c(CC#N)nn2-c2ccccc2)c1=N showed a TGI greater than 100 µM.
O=C1CC(C(O)(C(F)(F)F)C(F)(F)Cl)CCC1C(O)(C(F)(F)F)C(F)(F)Cl (centres undefined) gave a TGI greater than 10 µM.
C=CCNC(=S)N=Nc1c(O)[nH]c2ccc([N+](=O)[O-])cc12 showed a TGI greater than 100 µM.
Work on C[C@]12CC[C@@H]3c4ccc(O)cc4CC[C@H]3[C@@H]1C/C(=C\c1ccncc1)[C@@H]2O yielded a TGI of 22.5 µM.
COc1cc(-c2cc(=O)c3cc4c(=O)cc(-c5cc(OC)c(OC)c(OC)c5)oc4cc3o2)cc(OC)c1OC was tested, and the TGI was greater than 67.8 µM.
Molecule O=c1ccn(C2OC(CO)C(P(=O)(O)O)C2O)c(=O)[nH]1 (centres undefined) has a TGI greater than 100 µM.
With NCCCN1CCN(CCCNc2ccc3nnn4c5ccccc5c(=O)c2c34)CC1 the TGI was 33.3 µM.
With O=C(Oc1cc(=O)c(OC(=O)c2ccccc2)co1)c1ccccc1 the TGI was greater than 100 µM.

What follows are molecules tested on OVCAR-3 ovarian (assay: NCI tumour cell line growth inhibition, 48 h).
CCc1c[n+]([O-])c(C)cc1[N+](=O)[O-] showed a TGI greater than 100 µM.
COc1ccc(-c2c3c([nH]c(=S)c2C#N)CC(C)(C)CC3=O)cc1 gave a TGI greater than 100 µM.
Molecule N#CC(N=Nc1ccc(Cl)cc1)c1nc2ccccc2o1 (centres undefined) has a TGI greater than 100 µM.
In the case of COc1ccc(/C=C2\C[C@H]3[C@@H]4CCC5=C/C(=N/O)CC[C@]5(C)[C@H]4CC[C@]3(C)\C2=N\O)cc1OC, the TGI is reported as greater than 100 µM.
For Cc1ccc([N+](=O)[O-])cc1N=NC(=O)NNc1cc([N+](=O)[O-])ccc1C, the TGI was 39.9 µM.
Molecule COC(=O)CCc1cc(OC)c2c(c1)[C@H](C(=O)OC)[C@@H](c1ccc(O)c(OC)c1)O2 has a TGI greater than 100 µM.
For COC(=O)CN1c2nc(C#N)c(C#N)nc2N(CC(=O)OC)c2nc(C#N)c(C#N)nc21, the TGI was 18.8 µM.
Molecule CC(C)=CCC/C(C)=C/COC(C)(C)C1=CCC(C)CC1 (centres undefined) (tested in a mixture with another compound) has a TGI greater than 100 µM.
Molecule C/C1=C\CC[C@@]2(C)O[C@@H]2C[C@@H](C2(C)CO2)CC/C(C)=C/CC1 (some centres undefined) has a TGI of 48.9 µM.
Molecule Clc1ccc(CSCCc2ccncc2)cc1Cl has a TGI of 33.1 µM.
With COc1ccc(S(=O)(=O)N2C(=O)CCC2C(=O)NN)cc1 (centres undefined) the TGI was greater than 100 µM.
With CCCCn1cnc2c(c(CC#N)nn2-c2ccccc2)c1=N the TGI was greater than 100 µM.
O=C1CC(C(O)(C(F)(F)F)C(F)(F)Cl)CCC1C(O)(C(F)(F)F)C(F)(F)Cl (centres undefined) gave a TGI greater than 10 µM.
For C=CCNC(=S)N=Nc1c(O)[nH]c2ccc([N+](=O)[O-])cc12, the TGI was greater than 100 µM.
Work on C[C@]12CC[C@@H]3c4ccc(O)cc4CC[C@H]3[C@@H]1C/C(=C\c1ccncc1)[C@@H]2O yielded a TGI of 30.9 µM.
COc1cc(-c2cc(=O)c3cc4c(=O)cc(-c5cc(OC)c(OC)c(OC)c5)oc4cc3o2)cc(OC)c1OC showed a TGI greater than 100 µM.
With O=c1ccn(C2OC(CO)C(P(=O)(O)O)C2O)c(=O)[nH]1 (centres undefined) the TGI was greater than 100 µM.
With NCCCN1CCN(CCCNc2ccc3nnn4c5ccccc5c(=O)c2c34)CC1 the TGI was greater than 100 µM.
In the case of O=C(Oc1cc(=O)c(OC(=O)c2ccccc2)co1)c1ccccc1, the TGI is reported as greater than 100 µM.

These molecules were tested on HS 578T breast (assay: NCI tumour cell line growth inhibition, 48 h).
In the case of CCc1c[n+]([O-])c(C)cc1[N+](=O)[O-], the TGI is reported as greater than 100 µM.
For COc1ccc(-c2c3c([nH]c(=S)c2C#N)CC(C)(C)CC3=O)cc1, the TGI was greater than 100 µM.
Molecule N#CC(N=Nc1ccc(Cl)cc1)c1nc2ccccc2o1 (centres undefined) has a TGI greater than 100 µM.
For COc1ccc(/C=C2\C[C@H]3[C@@H]4CCC5=C/C(=N/O)CC[C@]5(C)[C@H]4CC[C@]3(C)\C2=N\O)cc1OC, the TGI was greater than 100 µM.
In the case of Cc1ccc([N+](=O)[O-])cc1N=NC(=O)NNc1cc([N+](=O)[O-])ccc1C, the TGI is reported as 55.6 µM.
Work on COC(=O)CCc1cc(OC)c2c(c1)[C@H](C(=O)OC)[C@@H](c1ccc(O)c(OC)c1)O2 yielded a TGI greater than 100 µM.
Molecule COC(=O)CN1c2nc(C#N)c(C#N)nc2N(CC(=O)OC)c2nc(C#N)c(C#N)nc21 has a TGI of 39.6 µM.
Molecule CC(C)=CCC/C(C)=C/COC(C)(C)C1=CCC(C)CC1 (centres undefined) (tested in a mixture with another compound) has a TGI greater than 100 µM.
With C/C1=C\CC[C@@]2(C)O[C@@H]2C[C@@H](C2(C)CO2)CC/C(C)=C/CC1 (some centres undefined) the TGI was 46.3 µM.
Clc1ccc(CSCCc2ccncc2)cc1Cl showed a TGI of 53.8 µM.
For COc1ccc(S(=O)(=O)N2C(=O)CCC2C(=O)NN)cc1 (centres undefined), the TGI was greater than 100 µM.
Work on CCCCn1cnc2c(c(CC#N)nn2-c2ccccc2)c1=N yielded a TGI greater than 100 µM.
In the case of O=C1CC(C(O)(C(F)(F)F)C(F)(F)Cl)CCC1C(O)(C(F)(F)F)C(F)(F)Cl (centres undefined), the TGI is reported as greater than 10 µM.
For C=CCNC(=S)N=Nc1c(O)[nH]c2ccc([N+](=O)[O-])cc12, the TGI was greater than 100 µM.
For C[C@]12CC[C@@H]3c4ccc(O)cc4CC[C@H]3[C@@H]1C/C(=C\c1ccncc1)[C@@H]2O, the TGI was 20.9 µM.
Work on COc1cc(-c2cc(=O)c3cc4c(=O)cc(-c5cc(OC)c(OC)c(OC)c5)oc4cc3o2)cc(OC)c1OC yielded a TGI of 97.2 µM.
With O=c1ccn(C2OC(CO)C(P(=O)(O)O)C2O)c(=O)[nH]1 (centres undefined) the TGI was greater than 100 µM.
NCCCN1CCN(CCCNc2ccc3nnn4c5ccccc5c(=O)c2c34)CC1 gave a TGI of 81.8 µM.
In the case of O=C(Oc1cc(=O)c(OC(=O)c2ccccc2)co1)c1ccccc1, the TGI is reported as greater than 100 µM.

What follows are molecules tested on BT-549 breast (assay: NCI tumour cell line growth inhibition, 48 h).
Molecule CCc1c[n+]([O-])c(C)cc1[N+](=O)[O-] has a TGI greater than 100 µM.
COc1ccc(-c2c3c([nH]c(=S)c2C#N)CC(C)(C)CC3=O)cc1 showed a TGI greater than 100 µM.
N#CC(N=Nc1ccc(Cl)cc1)c1nc2ccccc2o1 (centres undefined) was tested, and the TGI was 95.6 µM.
COc1ccc(/C=C2\C[C@H]3[C@@H]4CCC5=C/C(=N/O)CC[C@]5(C)[C@H]4CC[C@]3(C)\C2=N\O)cc1OC was tested, and the TGI was greater than 100 µM.
Molecule Cc1ccc([N+](=O)[O-])cc1N=NC(=O)NNc1cc([N+](=O)[O-])ccc1C has a TGI of 52.1 µM.
COC(=O)CCc1cc(OC)c2c(c1)[C@H](C(=O)OC)[C@@H](c1ccc(O)c(OC)c1)O2 showed a TGI greater than 100 µM.
In the case of COC(=O)CN1c2nc(C#N)c(C#N)nc2N(CC(=O)OC)c2nc(C#N)c(C#N)nc21, the TGI is reported as 11.3 µM.
CC(C)=CCC/C(C)=C/COC(C)(C)C1=CCC(C)CC1 (centres undefined) (tested in a mixture with another compound) was tested, and the TGI was greater than 100 µM.
For C/C1=C\CC[C@@]2(C)O[C@@H]2C[C@@H](C2(C)CO2)CC/C(C)=C/CC1 (some centres undefined), the TGI was 42.8 µM.
In the case of Clc1ccc(CSCCc2ccncc2)cc1Cl, the TGI is reported as 42.6 µM.
Molecule COc1ccc(S(=O)(=O)N2C(=O)CCC2C(=O)NN)cc1 (centres undefined) has a TGI greater than 100 µM.
In the case of CCCCn1cnc2c(c(CC#N)nn2-c2ccccc2)c1=N, the TGI is reported as greater than 100 µM.
In the case of O=C1CC(C(O)(C(F)(F)F)C(F)(F)Cl)CCC1C(O)(C(F)(F)F)C(F)(F)Cl (centres undefined), the TGI is reported as greater than 10 µM.
With C=CCNC(=S)N=Nc1c(O)[nH]c2ccc([N+](=O)[O-])cc12 the TGI was greater than 100 µM.
With C[C@]12CC[C@@H]3c4ccc(O)cc4CC[C@H]3[C@@H]1C/C(=C\c1ccncc1)[C@@H]2O the TGI was 14.2 µM.
For COc1cc(-c2cc(=O)c3cc4c(=O)cc(-c5cc(OC)c(OC)c(OC)c5)oc4cc3o2)cc(OC)c1OC, the TGI was 86.2 µM.
With O=c1ccn(C2OC(CO)C(P(=O)(O)O)C2O)c(=O)[nH]1 (centres undefined) the TGI was greater than 100 µM.
NCCCN1CCN(CCCNc2ccc3nnn4c5ccccc5c(=O)c2c34)CC1 was tested, and the TGI was 22.6 µM.
O=C(Oc1cc(=O)c(OC(=O)c2ccccc2)co1)c1ccccc1 was tested, and the TGI was greater than 100 µM.

Each molecule was assayed on MDA-N (assay: NCI tumour cell line growth inhibition, 48 h).
CCc1c[n+]([O-])c(C)cc1[N+](=O)[O-] was tested, and the TGI was greater than 100 µM.
COc1ccc(-c2c3c([nH]c(=S)c2C#N)CC(C)(C)CC3=O)cc1 gave a TGI greater than 100 µM.
N#CC(N=Nc1ccc(Cl)cc1)c1nc2ccccc2o1 (centres undefined) showed a TGI greater than 100 µM.
Work on COc1ccc(/C=C2\C[C@H]3[C@@H]4CCC5=C/C(=N/O)CC[C@]5(C)[C@H]4CC[C@]3(C)\C2=N\O)cc1OC yielded a TGI greater than 100 µM.
Molecule Cc1ccc([N+](=O)[O-])cc1N=NC(=O)NNc1cc([N+](=O)[O-])ccc1C has a TGI of 82.8 µM.
Molecule COC(=O)CCc1cc(OC)c2c(c1)[C@H](C(=O)OC)[C@@H](c1ccc(O)c(OC)c1)O2 has a TGI of 44.6 µM.
Work on COC(=O)CN1c2nc(C#N)c(C#N)nc2N(CC(=O)OC)c2nc(C#N)c(C#N)nc21 yielded a TGI greater than 100 µM.
Molecule CC(C)=CCC/C(C)=C/COC(C)(C)C1=CCC(C)CC1 (centres undefined) (tested in a mixture with another compound) has a TGI greater than 100 µM.
C/C1=C\CC[C@@]2(C)O[C@@H]2C[C@@H](C2(C)CO2)CC/C(C)=C/CC1 (some centres undefined) showed a TGI of 69.7 µM.
Molecule Clc1ccc(CSCCc2ccncc2)cc1Cl has a TGI of 46.5 µM.
For COc1ccc(S(=O)(=O)N2C(=O)CCC2C(=O)NN)cc1 (centres undefined), the TGI was greater than 100 µM.
For CCCCn1cnc2c(c(CC#N)nn2-c2ccccc2)c1=N, the TGI was greater than 100 µM.
Work on O=C1CC(C(O)(C(F)(F)F)C(F)(F)Cl)CCC1C(O)(C(F)(F)F)C(F)(F)Cl (centres undefined) yielded a TGI greater than 10 µM.
C=CCNC(=S)N=Nc1c(O)[nH]c2ccc([N+](=O)[O-])cc12 showed a TGI greater than 100 µM.
C[C@]12CC[C@@H]3c4ccc(O)cc4CC[C@H]3[C@@H]1C/C(=C\c1ccncc1)[C@@H]2O gave a TGI greater than 100 µM.
COc1cc(-c2cc(=O)c3cc4c(=O)cc(-c5cc(OC)c(OC)c(OC)c5)oc4cc3o2)cc(OC)c1OC showed a TGI greater than 100 µM.
O=c1ccn(C2OC(CO)C(P(=O)(O)O)C2O)c(=O)[nH]1 (centres undefined) was tested, and the TGI was greater than 100 µM.
NCCCN1CCN(CCCNc2ccc3nnn4c5ccccc5c(=O)c2c34)CC1 was tested, and the TGI was 31 µM.
With O=C(Oc1cc(=O)c(OC(=O)c2ccccc2)co1)c1ccccc1 the TGI was greater than 100 µM.

These molecules were tested on U251 CNS (assay: NCI tumour cell line growth inhibition, 48 h).
Work on CCc1c[n+]([O-])c(C)cc1[N+](=O)[O-] yielded a TGI greater than 100 µM.
COc1ccc(-c2c3c([nH]c(=S)c2C#N)CC(C)(C)CC3=O)cc1 showed a TGI greater than 100 µM.
With N#CC(N=Nc1ccc(Cl)cc1)c1nc2ccccc2o1 (centres undefined) the TGI was greater than 100 µM.
